Data as given in patent US20140350119A1, “OPHTHALMIC COMPOSITION COMPRISING GERANYLGERANYLACETONE” (ROHTO PHARMACEUTICAL CO., LTD., priority 2012, published 2014).

Tests used:
[1] = tested on: PC12; test: Protective effect against ischemic cell death induced by hypoxia and low glucose (cell viability, Cell Titer-Glo); assay type: cell-based, rat; conditions: 30 μM, 2 h, then low glucose, zero percent O2, 8 h, FIG. 1, Tukey-Kramer test
Source text: The progress of visual impairment in glaucoma is associated with retinal ganglion cell (RGC) death due to blood flow failure occurring near the optic nerve (Folia Pharmacol. Jpn. 128, 255-258 (2006)). With the use of PC12, which is a typical neural cell line established from rat adrenal […] pheochromocytoma and used also as a model cell for the functional evaluation of RGC (J Neurosci Res. 2000 May 15; 60(4): 495-503.), the cytoprotective effect of GGA against ischemic cell death induced by hypoxia and low glucose was evaluated.
Test samples were prepared as follows. The test substances were four types of GGAs that contain the all-trans form and the 5Z-mono-cis form at a weight ratio of 10:0, 8:2, 6:4, and 0:10, respectively. […]
After 8 hours of incubation, 100 μL of an equivalent mixture of a cell viability detection reagent Cell Titer-Glo (Promega) and PBS was added to each well and the luminescence produced by the reaction with ATP in living cells was measured with a luminometer (GloMax; Promega). The cell viability was calculated from the measured luminescence by the following formula and the cytoprotective effect of GGA against […] was examined.
Cell viability (%)=100×[(luminescence of base- or GGA-treated group)/(luminescence of non-treated group)]

[2] = tested on: rat models with glaucoma induced by NMDA; test: Protective effect for retinal ganglion cells against nerve damage by NMDA (thickness of inner plexiform layer); assay type: in vivo, Sprague-Dawley (SD) rats; conditions: once per day
Source text: In recent years the glutamate analogue NMDA (N-methyl-D-aspartate) has been widely reported to be one of causative agents of neurodegenerative diseases including Alzheimer's disease. In the ophthalmic field, NMDA is considered to be involved in optic nerve damage in glaucoma (Brain Research Bulletin, 81 (2010) 349-358). Accordingly, in this experiment rat models with glaucoma induced by NMDA were used to evaluate the neuroprotective effect of GGA.
To Sprague-Dawley (SD) rats, the all-trans form, the 5Z-mono-cis form and teprenone were separately pre-administered by oral administration (Test Example 1), intravitreal administration (Test Example 2) or ocular instillation administration (Test Example 3) and 5 μL of NMDA was administered into the vitreous body to induce nerve damage. For Test Example 2, a marketed therapeutic eye drop for glaucoma, AIPHAGAN (trade name), was intravitreally administered as a positive control once a day for five days. For each of Test Examples, a base not containing GGA or AIPHAGAN was administered as a control in the same manner as described above.
The dosage and regimen of Test Examples 1 to 3 are shown in Table 1 and the constitution of the base used in each tests are shown in Table 2.
Three days after administration of NMDA, the eyeballs were harvested, fixed with half Karnovsky's fixative for 24 hours, embedded in paraffin, thin sectioned and stained with hematoxylin-eosin (HE) to prepare histopathological sections. The histological sections were observed under an optical microscope and the thickness (μm) of the inner plexiform layer (IPL) of the retina was measured. From the thickness of the inner plexiform layer (IPL) of the retina, the neuroprotective effects of the test preparations were evaluated.

[3] = tested on: retinal detachment-induced animal; conditions: intraperitoneal administration; Non Patent Literature 1; cited from earlier work
[4] = tested on: glaucoma rat model; conditions: intraperitoneal administration; Non Patent Literature 2; cited from earlier work
[5] = tested on: mouse with visual cell damage induced by light irradiation; conditions: oral administration; Non Patent Literature 3; cited from earlier work
[6] = tested on: mouse with retinal injury induced by ischemia; conditions: oral administration; Non Patent Literature 4; cited from earlier work
[7] = tested on: multiple sclerosis mouse model; conditions: oral administration; Non Patent Literature 5; cited from earlier work
[8] = Test Example 1: oral, 800 mg/kg, 2 days, NMDA 4 mM, FIG. 6

Molecule | Cytoprotective effect compared with GGA of weight ratio 6:4 [1] | Neuroprotective effect against nerve damage by NMDA compared with the base (IPL thickness) [2, 8] | Neuroprotective effect against nerve damage by NMDA compared with the base (IPL thickness) ([2]; Test Example 2: intravitreal, 0.05% w/v, 5 days, NMDA 40 mM, FIG. 7) | Apoptosis of visual cells [3] | Expression of heat shock protein 70 [3] | Expression of heat shock protein 72 [4] | Optic nerve damage [4] | Retinal ganglion cell death [4] | Thioredoxin and heat shock protein 72 in the retinal pigment epithelium [5] | Number of surviving retinal neurons [6] | Cell loss in the ganglion [7] | Number of degenerating axons in the optic nerve [7] | Visual function [7]
CC(=O)CC/C=C(/C)CC/C=C(\C)CC/C=C(\C)CCC=C(C)C [5Z-mono-cis form, (5Z,9E,13E)-6,10,14,18-tetramethyl-5,9,13,17-nonadecatetrae n-2-one] | significantly higher cytoprotective effects | significant neuroprotective effects | significant neuroprotective effects |  |  |  |  |  |  |  |  |  | 
teprenone |  | did not show a significant neuroprotective effect |  | reduced the apoptosis of visual cells significantly | induced the expression of heat shock protein 70 | induced the expression of heat shock protein 72 | ameliorated optic nerve damage | reduced retinal ganglion cell death | induced thioredoxin and heat shock protein 72 | significantly increased | prevented cell loss | reduced the number of degenerating axons | improved the visual function
